Laboratory results taken from ChEMBL document CHEMBL5579878, “Allosteric Activation of Protein Phosphatase 5 with Small Molecules” (J Med Chem, 2024).

What was measured:
[1] = target: T1, Serine/threonine-protein phosphatase 5 (Homo sapiens) (UniProt P53041); assay: Activation of His-tagged human PP5 extracted from Escherichia coli BL21 using pNPP as substrate assessed as fold increase in phosphatase activity at 50 uM incubated for 30 mins by spectrophotometric analysis
T1 sequence (whole entry): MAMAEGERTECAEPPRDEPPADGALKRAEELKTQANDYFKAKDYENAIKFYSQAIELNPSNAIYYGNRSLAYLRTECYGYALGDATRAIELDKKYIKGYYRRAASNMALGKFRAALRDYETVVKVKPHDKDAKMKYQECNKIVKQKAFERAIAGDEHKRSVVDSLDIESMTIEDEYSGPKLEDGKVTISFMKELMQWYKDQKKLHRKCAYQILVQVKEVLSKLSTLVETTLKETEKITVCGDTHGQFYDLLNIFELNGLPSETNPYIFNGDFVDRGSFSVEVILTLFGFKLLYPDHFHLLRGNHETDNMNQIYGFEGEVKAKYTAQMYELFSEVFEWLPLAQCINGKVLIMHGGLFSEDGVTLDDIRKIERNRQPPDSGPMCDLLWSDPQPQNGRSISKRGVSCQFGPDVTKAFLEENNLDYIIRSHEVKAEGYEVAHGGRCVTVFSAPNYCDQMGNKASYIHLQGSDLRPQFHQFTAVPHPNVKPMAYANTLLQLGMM

[2] = target: T2, Serine/threonine-protein phosphatase 5 (Homo sapiens, UniProt P53041); assay: Inhibition of human PP5 phosphatase domain extracted from Escherichia coli BL21 using pNPP as substrate incubated for 30 mins by spectrophotometric analysis
T2 sequence (P53041 whole entry): T1 sequence (whole entry)

[3] = target: T2, Serine/threonine-protein phosphatase 5; assay: Inhibition of DDO-3733 preincubated human PP5 phosphatase domain extracted from Escherichia coli BL21 using pNPP as substrate incubated for 30 mins by spectrophotometric analysis
[4] = Toxicity in BALB/c nude mouse xenografted with human HCT-116 cells assessed as body weight loss at 20 mg/kg, ip administered every other day for 14 days; assay type: organism-based; conditions: in vivo, 336 h, time 14 day
[5] = test system: HCT-116; assay: Antiproliferative activity against human HCT-116 cells assessed as inhibition of cell proliferation incubated for 72 hrs by CCK8 assay; assay type: functional, cell-based; conditions: HCT-116, 72 h
[6] = test system: SW-620; assay: Antiproliferative activity against human SW620 cells assessed as inhibition of cell proliferation incubated for 72 hrs by CCK8 assay; assay type: functional, cell-based; conditions: SW-620, 72 h
[7] = test system: HCT-116; assay: Heat shock toxicity in human HCT-116 cells assessed as increase in HSP40 mRNA expression at 10 to 100 nM incubated for 24 hrs by qRT-PCR analysis; assay type: cell-based; conditions: hct-116, 24 h, 0.1 µM, dose 10-100 nM
[8] = test system: HCT-116; assay: Heat shock toxicity in human HCT-116 cells assessed as increase in HSP70 protein expression at 3 to 100 nM incubated for 24 hrs by Western blot analysis; assay type: cell-based; conditions: hct-116, 24 h, 0.1 µM, dose 3-100 nM
[9] = test system: HCT-116; assay: Heat shock toxicity in human HCT-116 cells assessed as increase in HSP40 protein expression at 3 to 100 nM incubated for 24 hrs by Western blot analysis; assay type: cell-based; conditions: hct-116, 24 h, 0.1 µM, dose 3-100 nM
[10] = test system: HCT-116; assay: Heat shock toxicity in human HCT-116 cells assessed as increase in HSP70 mRNA expression at 10 to 100 nM incubated for 24 hrs by qRT-PCR analysis; assay type: cell-based; conditions: hct-116, 24 h, 0.1 µM, dose 10-100 nM
[11] = test system: HCT-116; assay: Heat shock toxicity in human HCT-116 cells assessed as increase in HSP27 mRNA expression at 10 to 100 nM incubated for 24 hrs by qRT-PCR analysis; assay type: cell-based; conditions: hct-116, 24 h, 0.1 µM, dose 10-100 nM
[12] = test system: HCT-116; assay: Heat shock toxicity in human HCT-116 cells assessed as increase in HSP27 protein expression at 3 to 100 nM incubated for 24 hrs by Western blot analysis; assay type: cell-based; conditions: hct-116, 24 h, 0.1 µM, dose 3-100 nM
[13] = target: T1, Serine/threonine-protein phosphatase 5 (Homo sapiens); assay: Activation of His-tagged human PP5 extracted from Escherichia coli BL21 using pNPP as substrate assessed as fold increase in phosphatase activity at 200 uM incubated for 30 mins by spectrophotometric analysis; conditions: filed as activator
[14] = target: T1, Serine/threonine-protein phosphatase 5 (Homo sapiens); assay: Activation of His-tagged human PP5 extracted from Escherichia coli BL21 using pNPP as substrate assessed as increase in phosphatase activity incubated for 30 mins by spectrophotometric analysis; conditions: filed as activator
[15] = target: T1, Serine/threonine-protein phosphatase 5 (Homo sapiens); assay: Activation of His-tagged human PP5 extracted from Escherichia coli BL21 using pNPP as substrate assessed as fold change in maximum activation upto 300 uM incubated for 30 mins by spectrophotometric analysis; conditions: filed as activator

Row | SMILES | fold change (FC) ([1]; filed as activator) | fold change (FC) [1] | also measured
1 | NC(=S)C1=Cc2cc(F)cc(F)c2OC1N (stereo not drawn) | 1.8 | – | –
2 | N=c1oc2cc(O)ccc2cc1C(N)=S | 2.4 | – | –
3 | N=c1oc2ccc3ccccc3c2cc1C(N)=S | 1.6 | – | –
4 | COc1cccc2oc(=N)c(C(N)=S)cc12 | – | < 1.5 | –
5 | CN1CCN(C(=O)C2C(C(=O)O)[C@H]3CC[C@@H]2O3)CC1 (stereo partly drawn) [LB-100] | – | – | IC50 [2]: 22.1 µM; IC50 [3]: 21.1 µM
6 | COc1ccc2cc(C(N)=S)c(=N)oc2c1 | 1.6 | – | –
7 | CC(C)c1cc(C(=O)N2Cc3ccc(CN4CCN(C)CC4)cc3C2)c(O)cc1O [ONALESPIB] | – | – | Activity [4]: Non-Toxic; IC50 [5]: 78.5 nM; IC50 [6]: 122 nM; Activity [7]: Toxic; Activity [8]: Toxic; Activity [9]: Toxic; Activity [10]: Toxic; Activity [11]: Toxic; Activity [12]: Toxic
8 | COc1ccc2oc(=N)c(C(N)=S)cc2c1 | 1.9 | – | fold change (FC) [13]: 3.4; Activity [14]: Dose-Dependent Effect
9 | N=c1oc2cc([N+](=O)[O-])ccc2cc1C(N)=S | – | < 1.5 | –
10 | C/N=c1/oc2c(F)cc(F)cc2cc1C(N)=S | – | < 1.5 | –
11 | Cc1ccc2oc(=N)c(C(N)=S)cc2c1 | 1.6 | – | –
12 | N=c1oc2ccc(O)cc2cc1C(N)=S | 1.9 | – | –
13 | N=c1oc2c(F)cc(F)cc2cc1C(=S)NC=O | 2.1 | – | –
14 | N=c1oc2cc(Br)ccc2cc1C(N)=S | 2.1 | – | fold change (FC) [15]: 4; Activity [14]: Dose-Dependent Effect
15 | N=c1oc2ccccc2cc1C(N)=S | 1.8 | – | –
16 | COc1cccc2cc(C(N)=S)c(=N)oc12 | – | < 1.5 | –
17 | N=c1oc2c(Br)cc(Br)cc2cc1C(N)=S | 2.6 | – | –
18 | CO/N=c1/oc2c(F)cc(F)cc2cc1C(N)=S | – | < 1.5 | –
19 | COc1cc(Br)cc2cc(C(N)=S)c(=N)oc12 | 2.1 | – | –

Second part, led by results:

Row | fold change (FC) ([1]; filed as activator) | fold change (FC) [1] | SMILES | also measured
20 | 1.7 | – | N=c1oc2cc(F)c(F)cc2cc1C(N)=S | –
21 | – | < 1.5 | N=c1oc2ccc(F)cc2cc1C(N)=S | –
22 | – | < 1.5 | N=c1oc2c(F)cccc2cc1C(N)=S | –
23 | – | < 1.5 | N=c1oc2cccc(Br)c2cc1C(N)=S | –
24 | – | < 1.5 | N=c1oc2c(F)cc(F)cc2cc1C(N)=O | –
25 | – | < 1.5 | N=c1oc2cc(F)cc(F)c2cc1C(N)=O | –
26 | – | < 1.5 | N=c1oc2c(Cl)cc(Cl)cc2cc1C(N)=S | –
27 | 1.8 | – | N=c1oc2c(F)ccc(F)c2cc1C(N)=S | –
28 | 1.7 | – | N=c1oc2cc(F)ccc2cc1C(N)=S | –
29 | 2.1 | – | N=c1oc2c(F)cc(F)cc2cc1C(N)=S | –
30 | 1.6 | – | N=c1oc2cccc(F)c2cc1C(N)=S | –
